Results on 15 compounds are retold here after US5455348A, “2-pyrrolidinones, pharmaceutical compositions containing these compounds and processes for preparing them” (Thomae; Karl, priority 1991, dated 1995).

Data set [1] can be described thus: Tolerance after intravenous administration. It is filed as in vivo. To be noted: intravenous administration of 30 mg/kg to three mice.
Data set [2] relates to collagen-induced thrombocyte aggregation in platelet-rich plasma. Briefly: Collagen-induced platelet aggregation in platelet-rich plasma (Born and Cross method). The note with it: read-out: Inhibition of platelet aggregation EC50. It counts as cell-based, healthy volunteers (human).
Experimental: The thrombocyte aggregation is measured using the Born and Cross method (J. Physiol. 170: 397 (1964)) in platelet-rich plasma taken from healthy volunteers. To inhibit coagulation the blood is mixed with 3.14% sodium citrate in a ratio by volume of 1:10.
Collagen-induced aggregation
The pattern of the decrease in optical density of the platelet suspension is photometrically measured and recorded after the addition of aggregation-triggering substance. The rate of aggregation is concluded from the angle of inclination of the density curve. The point on the curve where there is maximum light transmittance is used to calculate the optical density.
The amount of collagen used is as small as possible but sufficient to produce an irreversible reaction curve. Standard commercial collagen produced by Hormonchemie of Munich is used. Before the addition of the collagen the plasma is incubated for 10 minutes with the substance at 37° C.
From the measurements obtained an EC50 is determined graphically, indicating a 50% change in the optical density in terms of the inhibition of aggregation.
Data set [3] deals with fibrinogen binding to human thrombocytes. Briefly: Fibrinogen binding to human thrombocytes. To be noted: gel-filtered human platelets, 125I fibrinogen, ADP, 20 minutes, ambient temperature; read-out: Fibrinogen-binding test IC50.
Experimental: The blood obtained by puncturing an antecubital vein is anticoagulated with trisodium citrate (final concentration: 13 mM) and centrifuged for 10 minutes at 170×g. The supernatant platelet-rich plasma is poured onto a Sepharose 2B column (Pharmacia) and eluted with a solution of 90 mM common salt, 14 mM trisodium citrate, 5 mM glucose and 50 mM Tris(hydroxymethyl)aminomethane, adjusted to pH 7.4. The gel-filtered platelets (GFP) appearing before the plasma proteins are used for the binding experiments.
50 μl of a 60 mM calcium chloride solution, 50 μl of a 0.6 mM adenosine diphosphate solution, 100 μl of substance solution or solvent and 50 μl of fibrinogen solution (containing 3 μg of ^125 I fibrinogen) are added to 750 μl of GFP and incubated for 20 minutes at ambient temperature. The non-specific binding is determined in the presence of 3 mg/ml of cold fibrinogen.
900 μl of the incubated material are carefully pipetted onto 250 μl of silicon oil (AP 38: AR 20, 1:2 v/v, Wacker Chemie) in Eppendorf tubes and centrifuged for 2 minutes at 10,000×g. The aqueous supernatant and some of the oil are drawn off, the tips of the tubes are cut off together with the platelet pellet and the quantity of bound fibrinogen is determined in a gamma counter. The concentration of substance which brings about a 50% inhibition in fibrinogen binding is determined from a series of concentrations and is given as the IC50 value.
Data set [4] concerns collagen-induced thrombocyte aggregation. In words: Inhibition of collagen-induced thrombocyte aggregation ex vivo after oral administration. It counts as in vivo. To be noted: Rhesus monkeys, oral administration of 1 mg/kg. How it is done: Moreover, the compound of Example 5, for example, inhibits the collagen-induced thrombocyte aggregation ex vivo in Rhesus monkeys for more than 8 hours after oral administration of 1 mg/kg.

The mark [5] stands for this setting: collagen-induced, human platelet-rich plasma, 10 minutes preincubation at 37° C.

SMILES strings stand for the structures. Structures can show the parent of a compound that is named as a salt. Where two headings read alike, the source gives them in different places.

The term EC50 denotes the concentration that produces a half-maximal response. By IC50 is commonly meant the midpoint of a concentration-inhibition curve. As for `N=C(N)c1ccc(NC(=O)c2cccn(C[C@@H]3C[C@@H](CC(=O)O)C(=O)N3CCCc3ccccc3)c2=O)cc1` [4(18)], the animals died entry in data set [1] is “no animals died”. Besides, in data set [2] (Homo sapiens, Platelet), the 50% effective concentration (EC50) turned out to be 0.43 µM. In addition, the IC50 in data set [3] was 0.055 µM.

For `N=C(N)c1cnc(-c2ccc(OC[C@@H]3C[C@@H](CC(=O)O)C(=O)N3)cc2)s1` [Example 1(3), (3S,5S)-5-[[4-(5-amidino-2-thiazolyl)phenyl]oxymethyl]-3-carboxymethyl-2-pyrrolidinone×0.6 H2 O], the EC50 in data set [2] (setting [5]) is 0.1 µM. Further, the IC50 in data set [3] was 0.042 µM.

For the compound `N=C(N)c1ccc(-c2ccc(OC[C@@H]3C[C@@H](CC(=O)O)C(=O)N3)cc2)nc1` [Example 1, (3S,5S)-5-[[4-(5-amidino-2-pyridyl)phenyl]oxymethyl]-3-carboxymethyl-2-pyrrolidinone], in data set [1], the animals died result is listed as “no animals died”. For the same compound, the concentration giving a half-maximal response (EC50) in data set [2] (setting [5]) was determined as 0.06 µM.

As to `N=C(N)c1ccc(-c2ccc(OC[C@@H]3C[C@@H](CC(=O)O)CN3c3ncccn3)cc2)cc1` [Example 4(2), (3S,5S)-5-[(4'-amidino-4-biphenylyl)oxymethyl]-3-carboxymethyl-1-(2-pyrimidyl)-pyrrolidine×0.25 HCl×0.4 H2 O], in data set [2] (setting [5]), the concentration giving a half-maximal response (EC50) amounted to 0.54 µM. Moreover, the IC50 in data set [3] is 0.2 µM.

As to `Nc1nccc2cc(-c3ccc(OC[C@@H]4C[C@@H](CC(=O)O)C(=O)N4)cc3)ccc12` [Example 4(3), (3S,5S)-5-[[4-(1-amino-6-isoquinolinyl)phenyl]oxymethyl]-3-carboxymethyl-2-pyrrolidinone-hydrochloride], the EC50 in data set [2] (setting [5]) was 38 µM. Besides, the concentration for half-maximal inhibition (IC50) in data set [3] was 0.16 µM.

Consider `N=C(N)c1ccc(-c2ccc(OC[C@@H]3C[C@@H](CC(=O)O)CN3C(=O)c3cccnc3)cc2)cc1` [Example 4(4), (3S,5S)-5-[(4'-amidino-4-biphenylyl)oxymethyl]-3-carboxymethyl-1-nicotinoyl-pyrrolidine], for which the EC50 in data set [2] (setting [5]) was 0.21 µM. Also, the half-maximal inhibitory concentration (IC50) in data set [3] was found to be 0.14 µM.

As to `N=C(N)c1ccc(-c2ccc(OC[C@@H]3C[C@@H](CC(=O)O)C(=O)N3c3cccnc3)cc2)cc1` [Example 4(6), (3S,5S)-5-[(4'-amidino-4-biphenylyl)oxymethyl]-3-carboxymethyl-1-(3-pyridyl)-2-pyrrolidinone×1.2 H2 O], in data set [2] (setting [5]), the EC50 amounted to 0.16 µM. For the same compound, the half-maximal inhibitory concentration (IC50) in data set [3] was 0.031 µM.

`N=C(N)c1ccc2c(c1)CCN(C(=O)NCC[C@@H]1C[C@@H](CC(=O)O)C(=O)N1CCCc1ccccc1)CC2` [Example 4(8), (3S,5S)-5-[2-[(7-amidino-1H-2,3,4,5-tetrahydro-3-benzazepin-3-yl)carbonylamino]ethyl]-3-carboxymethyl-1-(3-phenylpropyl)-2-pyrrolidinone×2 H2 O]: in data set [2] (setting [5]), the concentration for a half-maximal effect (EC50) is 5.5 µM. Also, the half-maximal inhibitory concentration (IC50) in data set [3] is 0.77 µM.

With `N=C(N)c1ccc(-c2ccc(OC[C@@H]3C[C@@H](CC(=O)O)C(=O)N3CCCc3ccccc3)nn2)cc1` [Example 4(11)], the EC50 in data set [2] (setting [5]) was 0.1 µM. Besides, the half-maximal inhibitory concentration (IC50) in data set [3] is 0.032 µM.

As to `N=C(N)c1ccc(-c2ccc(NC[C@@H]3C[C@@H](CC(=O)O)C(=O)N3)nn2)cc1` [Example 4(13), (3S,5S)-5-[[6-(4-amidinophenyl)-3-pyridazinyl]aminomethyl]-3-carboxymethyl-2-pyrrolidinone], the EC50 in data set [2] (setting [5]) came to 0.59 µM. Besides, the 50% inhibitory concentration (IC50) in data set [3] was found to be 0.059 µM.

In the case of `Cn1nc(-c2ccc(C(=N)N)cc2)cc(C(=O)NC[C@@H]2C[C@@H](CC(=O)O)C(=O)N2)c1=O` [Example 4(15), (3S,5S)-5-[[[6-(4-amidinophenyl)-2-methyl-3(2H)-pyridazinon-4-yl]carbonyl]aminomethyl]-3-carboxymethyl-2-pyrrolidinone], the concentration for a half-maximal effect (EC50) in data set [2] (setting [5]) is 3 µM. Also, the IC50 in data set [3] stood at 0.59 µM.

For `COC(=O)C[C@@H]1C[C@@H](COc2ccc(-c3ccc(C(=N)NC(=O)OC)cn3)cc2)NC1=O` [Example 5, (3S,5S)-5-[[4-[5-(N-Methoxycarbonylamidino)-2-pyridyl]phenyl]oxymethyl]-3-[(methoxycarbonyl)methyl]-2-pyrrolidinone], in data set [4], the “inhibits the collagen-induced thrombocyte aggregation ex vivo for (duration)” value is “more than 8 hours”.

In the case of `COC(=O)C[C@@H]1C[C@@H](COc2ccc(-c3ccc(C(=N)N)cc3)cc2)N(c2cccnc2)C1=O` [Example 6(3), (3S,5S)-5-[(4'-amidino-4-biphenylyl)oxymethyl]-3-[(methoxycarbonyl)methyl]-1-(3-pyridyl)-2-pyrrolidinone×1.2 HCl×1 H2 O], the 50% effective concentration (EC50) in data set [2] (setting [5]) stood at 2.5 µM. Further, the IC50 in data set [3] was determined as 13 µM.

`N=C(N)N1Cc2ccc(C(=O)NCC[C@@H]3C[C@@H](CC(=O)O)C(=O)N3CCCc3ccccc3)cc2C1` [Example 11, (3S,5S)-5-[2-[(2-amidino-5-isoindolinyl)carbonylamino]ethyl]-3-carboxymethyl-1-(3-phenylpropyl)-2-pyrrolidinone]: the EC50 in data set [2] (setting [5]) came to 0.89 µM. Also, the half-inhibitory concentration (IC50) in data set [3] is 0.27 µM.

`O=C(O)C[C@@H]1C[C@@H](CCNC(=O)c2ccc(C3CCNCC3)cc2)N(CCCc2ccccc2)C1=O` [Example 12(6), (3S,5S)-3-carboxymethyl-1-(3-phenylpropyl)-5-[2-[[4-(4-piperidinyl)phenyl]carbonylamino]ethyl]-2-pyrrolidinone×0.75 H2 O]: the EC50 in data set [2] (setting [5]) came out at 3.8 µM. Besides, the IC50 in data set [3] worked out at 0.57 µM.
